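Protocol summary: plate cells (96-well), add compound at 5 concentrations, incubate 48 h, interpolate endpoints linearly. Here, GI50 denotes the concentration required for 50% inhibition of growth.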 Calls of active or inactive are those of the source. No stated cut-off is given here; in the data, active = GI50 up to about 1.1 µM and inactive = higher. Where a SMILES comes first, the peptide text is derived from it. [ ]: non-standard residue; d: D form. The star is where a group is joined. Phe(4-NO2) = N[CH](Cc1ccc([N+](=O)[O-])cc1)C(=O)O; Boc = CC(C)(C)OC(=O)*; OtBu = CC(C)(C)O*
What was measured:
Test in all cases: NCI-60 cell line screen, 48 h
MOLT-4 = tested on: MOLT-4
SK-OV-3 = tested on: SK-OV-3
SN12C = tested on: SN12C
HCT-116 = tested on: HCT-116
ACHN = tested on: ACHN
SF-295 = tested on: SF-295
IGROV-1 = tested on: IGROV-1
SK-MEL-5 = tested on: SK-MEL-5
COLO 205 = tested on: COLO 205
M14 = tested on: M14
OVCAR-3 = tested on: OVCAR-3
SF-268 = tested on: SF-268
PC-3 = tested on: PC-3
SF-539 = tested on: SF-539
HOP-62 = tested on: HOP-62
MCF7 = tested on: MCF7
NCI-H226 = tested on: NCI-H226
A549 = tested on: A549
A498 = tested on: A498

Measured: GI50

O=c1c2cc([N+](=O)[O-])cnc2sn1-c1ccc([N+](=O)[O-])cc1
inactive: MOLT-4 32.1 µM | SK-OV-3 35.5 µM | SN12C 47.2 µM | HCT-116 23.7 µM | ACHN 71.3 µM | SF-295 38.2 µM | IGROV-1 52.5 µM | SK-MEL-5 99.5 µM | COLO 205 16.9 µM | M14 48.8 µM | OVCAR-3 34.6 µM | SF-268 27.1 µM | PC-3 22 µM | SF-539 29.2 µM | HOP-62 52 µM | MCF7 22.4 µM | NCI-H226 74.6 µM | A549 33 µM

O=C1Nc2ccccc2/C1=C1/Nc2ccccc2/C1=N\OCCOC1OCC(O)C(O)C1O (centres undefined)
inactive: MOLT-4 85.7 µM | SK-OV-3 1.68 µM | SN12C > 100 µM | HCT-116 32.8 µM | ACHN > 100 µM | SF-295 > 100 µM | IGROV-1 5.35 µM | SK-MEL-5 17.9 µM | COLO 205 31 µM | M14 43.4 µM | OVCAR-3 > 100 µM | SF-268 > 100 µM | PC-3 27.2 µM | SF-539 > 100 µM | HOP-62 6.38 µM | MCF7 53.2 µM | NCI-H226 69.3 µM | A549 > 100 µM

CC(=O)/C(=C/n1ccc(=O)[nH]c1=S)C(=O)Nc1ccccc1C
inactive: SK-OV-3 > 100 µM | SN12C > 100 µM | HCT-116 > 100 µM | ACHN > 100 µM | SF-295 > 100 µM | IGROV-1 > 100 µM | SK-MEL-5 > 100 µM | COLO 205 > 100 µM | M14 > 100 µM | OVCAR-3 > 100 µM | SF-268 > 100 µM | SF-539 > 100 µM | A498 > 100 µM | HOP-62 > 100 µM | MCF7 > 100 µM | NCI-H226 > 100 µM | A549 > 100 µM

O=C(Nc1ccccc1F)c1cc2ccc(O)cc2o/c1=N\c1cccc(F)c1
inactive: MOLT-4 4.41 µM | SK-OV-3 28.1 µM | HCT-116 11.1 µM | ACHN 9.89 µM | SF-295 4.3 µM | IGROV-1 3.66 µM | SK-MEL-5 5.22 µM | COLO 205 29.7 µM | M14 15.7 µM | OVCAR-3 11.5 µM | SF-268 19.2 µM | PC-3 18.6 µM | SF-539 17.5 µM | A498 18.2 µM | HOP-62 19 µM | MCF7 15.1 µM | A549 7.98 µM

NC1=C(N2CCCCC2)C(=O)NC2=N/C(=C\c3ccccc3)C(=O)N21
inactive: MOLT-4 62.1 µM | SK-OV-3 > 100 µM | SN12C > 100 µM | HCT-116 > 100 µM | ACHN > 100 µM | SF-295 > 100 µM | IGROV-1 > 100 µM | SK-MEL-5 > 100 µM | COLO 205 > 100 µM | M14 > 100 µM | SF-268 > 100 µM | SF-539 > 100 µM | A498 > 100 µM | MCF7 > 100 µM | NCI-H226 > 100 µM | A549 > 100 µM

COC(C)(C)OCCN1CCN(CCN2C3=C(C=C(C(C)=O)C3)Sc3ccccc32)CC1
inactive: MOLT-4 17.3 µM | SK-OV-3 35.8 µM | SN12C 26.7 µM | HCT-116 18 µM | ACHN 18.1 µM | SF-295 19.5 µM | IGROV-1 20 µM | SK-MEL-5 17.5 µM | COLO 205 17.6 µM | M14 20.3 µM | OVCAR-3 22.2 µM | SF-268 19.6 µM | PC-3 24.8 µM | SF-539 20.1 µM | A498 17.6 µM | HOP-62 19.4 µM | NCI-H226 22.9 µM | A549 32.6 µM

COC(=O)C1CCC(=S)N1C(C)=O (centres undefined)
inactive: MOLT-4 > 100 µM | SK-OV-3 > 100 µM | HCT-116 > 100 µM | ACHN > 100 µM | SF-295 > 100 µM | IGROV-1 > 100 µM | SK-MEL-5 > 100 µM | COLO 205 > 100 µM | M14 > 100 µM | OVCAR-3 > 100 µM | SF-268 > 100 µM | PC-3 > 100 µM | A498 > 100 µM | HOP-62 > 100 µM | MCF7 > 100 µM | A549 > 100 µM

COC(C)(C)[C@@H]1CCCN1C1=C(C)C(=O)OC1
inactive: MOLT-4 > 100 µM | SK-OV-3 > 100 µM | SN12C > 100 µM | HCT-116 > 100 µM | ACHN > 100 µM | SF-295 > 100 µM | IGROV-1 > 100 µM | SK-MEL-5 > 100 µM | COLO 205 > 100 µM | SF-268 > 100 µM | PC-3 > 100 µM | SF-539 > 100 µM | HOP-62 > 100 µM | MCF7 > 100 µM

COc1ccc(C2=Nn3c(nnc3-c3ccccc3)S/C2=C\c2ccc(-c3ccc([N+](=O)[O-])cc3)o2)cc1
inactive: MOLT-4 11.3 µM | SK-OV-3 34.4 µM | SN12C 18.2 µM | HCT-116 29.6 µM | ACHN 64.1 µM | SF-295 26.5 µM | IGROV-1 56.9 µM | SK-MEL-5 27.6 µM | COLO 205 25.8 µM | M14 25.4 µM | OVCAR-3 23.3 µM | SF-268 28.8 µM | PC-3 27.3 µM | A498 58.6 µM | HOP-62 52.4 µM | MCF7 15.1 µM | A549 36.7 µM

O=Cc1ccc(OC[C@H]2COC(=O)N2)cc1
inactive: MOLT-4 > 100 µM | SK-OV-3 > 100 µM | SN12C > 100 µM | HCT-116 > 100 µM | ACHN > 100 µM | SF-295 > 100 µM | IGROV-1 > 100 µM | SK-MEL-5 > 100 µM | COLO 205 72.4 µM | M14 > 100 µM | OVCAR-3 > 100 µM | SF-268 > 100 µM | PC-3 > 100 µM | SF-539 > 100 µM | HOP-62 > 100 µM | MCF7 > 100 µM | NCI-H226 > 100 µM | A549 47.9 µM

O=c1c2ccccc2nc(N/N=C/c2ccc([N+](=O)[O-])cc2)n1-c1ccccc1
inactive: MOLT-4 77.3 µM | SK-OV-3 18.7 µM | SN12C 91 µM | HCT-116 5.05 µM | ACHN 13.3 µM | SF-295 4.35 µM | IGROV-1 > 100 µM | SK-MEL-5 64.3 µM | COLO 205 > 100 µM | M14 31.7 µM | OVCAR-3 31.3 µM | SF-268 12.1 µM | PC-3 17.3 µM | HOP-62 13.3 µM | MCF7 20.9 µM | NCI-H226 > 100 µM | A549 15.6 µM

O=c1[nH]c(=O)n(C2CC(O)C(CO)O2)cc1/N=N/NCCc1ccccc1 (centres undefined)
inactive: MOLT-4 > 100 µM | SK-OV-3 > 100 µM | SN12C > 100 µM | HCT-116 > 100 µM | ACHN > 100 µM | SF-295 > 100 µM | IGROV-1 > 100 µM | SK-MEL-5 > 100 µM | COLO 205 > 100 µM | M14 > 100 µM | OVCAR-3 > 100 µM | SF-268 > 100 µM | PC-3 > 100 µM | HOP-62 > 100 µM | MCF7 > 100 µM | NCI-H226 > 100 µM | A549 > 100 µM

NS(=O)(=O)c1nnc(NC(=O)/C=C/C(=O)O)s1
inactive: MOLT-4 > 100 µM | SK-OV-3 > 100 µM | SN12C > 100 µM | HCT-116 > 100 µM | ACHN > 100 µM | SF-295 > 100 µM | SK-MEL-5 > 100 µM | COLO 205 > 100 µM | M14 > 100 µM | OVCAR-3 > 100 µM | SF-268 > 100 µM | SF-539 > 100 µM | A498 > 100 µM | HOP-62 > 100 µM | MCF7 > 100 µM | A549 > 100 µM

O=C(NCCO)Nc1c(C(F)(F)F)cc(-c2ccccc2)[nH]c1=O
inactive: MOLT-4 > 100 µM | SK-OV-3 > 100 µM | SN12C > 100 µM | HCT-116 > 100 µM | ACHN > 100 µM | SF-295 > 100 µM | IGROV-1 > 100 µM | SK-MEL-5 > 100 µM | COLO 205 > 100 µM | M14 > 100 µM | OVCAR-3 > 100 µM | PC-3 > 100 µM | A498 > 100 µM | HOP-62 > 100 µM | MCF7 > 100 µM | NCI-H226 > 100 µM | A549 > 100 µM

CC(=O)NC(CCC(=O)OC(C)(C)C)C(=O)NC(CCC(=O)OC(C)(C)C)C(=O)NC(Cc1ccc([N+](=O)[O-])cc1)C(=O)NC(CCCCNC(=O)OC(C)(C)C)C(=O)NC(CCCCNC(=O)OC(C)(C)C)C(=O)NCC(=O)O (centres undefined) (Ac-E(OtBu)E(OtBu)[Phe(4-NO2)]K(Boc)K(Boc)G-OH; configuration not given here)
inactive: MOLT-4 > 100 µM | SK-OV-3 > 100 µM | SN12C > 100 µM | HCT-116 > 100 µM | ACHN > 100 µM | SF-295 > 100 µM | IGROV-1 > 100 µM | SK-MEL-5 7.35 µM | COLO 205 > 100 µM | M14 20.5 µM | OVCAR-3 > 100 µM | SF-268 > 100 µM | PC-3 > 100 µM | SF-539 > 100 µM | HOP-62 > 100 µM | MCF7 > 100 µM | NCI-H226 > 100 µM | A549 > 100 µM

Source: ChEMBL document CHEMBL1201862, “PubChem BioAssay data set” (2004)
